Assay results from patent US10933141B2, “Formulations with reduced degradation of polysorbate” (Genentech, Inc., priority 2015, dated 2021).

Experiments:
[1] = biological target: T1, PPL enzyme (Sus scrofa, UniProt P00591); experiment: PPL degradation of PS20 in mAb, BsAb and sFAb samples, PS20 by RP-ELSD; format: biochemical, porcine; settings: 5% and 15% HPβCD, BsAb, sFAb 20 mg/mL and control, 0.02% PS20, 20 mM histidine acetate pH 5.5, 15 μg/mL PPL 4.5 hours
T1 construct: purchased Sigma Aldrich Inc. (St. Louis, Mo.)
T1 sequence (P00591 1-450): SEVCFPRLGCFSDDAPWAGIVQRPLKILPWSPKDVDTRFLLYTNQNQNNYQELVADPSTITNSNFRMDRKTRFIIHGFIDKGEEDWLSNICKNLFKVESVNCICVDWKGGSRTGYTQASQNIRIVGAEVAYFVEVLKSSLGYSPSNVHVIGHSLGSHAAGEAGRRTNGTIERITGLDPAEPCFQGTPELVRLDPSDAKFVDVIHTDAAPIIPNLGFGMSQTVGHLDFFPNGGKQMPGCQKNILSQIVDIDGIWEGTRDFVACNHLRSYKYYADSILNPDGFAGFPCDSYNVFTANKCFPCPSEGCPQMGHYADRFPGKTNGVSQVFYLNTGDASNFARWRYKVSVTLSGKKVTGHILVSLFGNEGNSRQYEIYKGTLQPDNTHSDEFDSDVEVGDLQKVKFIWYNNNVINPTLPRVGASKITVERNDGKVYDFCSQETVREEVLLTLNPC
Experimental: Polysorbate concentration was determined using reverse phase ultra-performance liquid chromatography using evaporative light scattering detection (RP-ELSD). Samples were analyzed using an Agilent 1100 series high performance liquid chromatography system (HPLC) fitted with a Waters Oasis MAX cartridge column (20×2.1 mm, 30 μm particle size). The HPLC system was set up with a switching valve directing column flow-through to either waste or a Varian 380-LC evaporative light scattering detector set to 100° C. The mobile phases consisted of 2% formic acid in water (Pump A) and 2% formic acid in isopropanol (Pump B). […] In order to quantitate the PS20 concentration, a standard curve was generated by injecting 20 μL of solutions containing between 0% w/v and 0.4% w/v PS20. For excipients which affected the migration time of PS20 through the column, PS20 standard curve solutions containing the relevant excipient were included in the analysis to facilitate accurate quantitation.
The impact of various protein molecule classes (e.g., monoclonal antibody (mAb), single-Fab antibody (sFAb), and bispecific antibody(BsAb)) was assessed on the ability of cyclodextrins to decrease enzymatic PS20 degradation. […] Each sample was analyzed for PS20 concentration using high performance liquid chromatography with an inline evaporative light scattering detector. […]

[2] = biological target: T2, porcine pancreatic lipase (PPL) (Sus scrofa, UniProt P00591); experiment: Subvisible particle formation after PPL digestion of PS20 (HIAC); format: physicochemical; settings: 0.02% PS20; for effect on SVP formation (in words): 15 μg/mL PPL 4.5 hours, then 5° C. overnight, excipient 15% w/v (methionine 10 mg/mL)
T2 construct: purchased Sigma Aldrich Inc. (St. Louis, Mo.)
T2 sequence (P00591 1-450): T1 sequence (P00591 1-450)
Experimental: Subvisible particles were measured using a HIAC 9703 particle counter equipped with an HRDL-150 detector and a 1 mL syringe. Performance of the instrument was verified with NIST-traceable 2 μm Polystyrene bead standards at 3000 counts/mL before each measurement session. The HIAC instrument was configured to a 10 mL/min flow rate, 0.1 mL tare volume, and 0.4 mL sample volume. The samples were analyzed using 4 runs of 0.4 mL sips, with the first run of each sample was discarded to prevent measurement error due to sample carryover. Results were reported as the average values for 1.4, 2, 5, 10, 15, and 25, 50 μm analysis filter sizes.
Several excipients were tested for their ability to protect PS20 against enzymatic hydrolysis including HP-α-CD, HP-β-CD, HP-γ-CD, SBE-β-CD, PVP, PEG 1500, sucrose, and methionine. Solutions of each excipient in pH 5.5 buffer were prepared containing a final concentration of 0.02% PS20 after enzyme addition. The concentration of HP-α-CD, HP-β-CD, HP-γ-CD, and SBE-β-CD in the excipient solutions was 106 mM. […] The remaining excipients (PVP, PEG 1500, sucrose) were added to 15% w/v to match the % w/v of HP-β-CD. Samples were digested with 15 μg/mL PPL enzyme for 4.5 hours at room temperature, followed by 30 minutes of heat inactivation at 85° C. Each sample was analyzed for PS20 concentration using high performance liquid chromatography with an inline evaporative light scattering detector. Samples were then placed at 5° C. overnight to allow for the formation of particles and were analyzed for visible and subvisible particles as described previously.
The effect of the HP-β-CD concentration at different PS20 concentrations on the enzymatic degradation of PS20 was assessed to identify optimal concentrations for inhibition of enzymatic PS20 degradation. To evaluate the dependence of PS20 degradation on HP-β-CD concentration, the PS20 content was determined using RP-ELSD for triplicate samples containing different HP-β-CD concentrations at various PS20 concentrations. Samples containing 0.005% (FIG. 14A), 0.02% (FIG. 14B), 0.1% (FIG. 14C), and 0.4% PS20 (FIG. 14D) were digested using 15 μg/mL of PPL enzyme for 4.5 hours at room temperature in protein-free samples containing no excipient (control), 0, 0.5, 5, and 15% (w/v) HP-β-CD. PPL was added to each of the treatment solutions at a ratio of 75 […], with an equivalent volume of buffer added to the control solutions to determine the effect of HP-β-CD to polysorbate ratio on enzymatic degradation. Digestion was stopped by heat inactivation in an 85° C. water bath for 30 minutes. Each sample was analyzed for PS20 concentration using high performance liquid chromatography with an inline evaporative light scattering detector as described above. Samples were then placed at 5° C. overnight to allow for the formation of particles and placed on ice during analysis for visible and subvisible particles as described above.

[3] = PPL 4.5 hours, particles greater than 2, 5, or 10μ

With “2-hydroxypropyl-β-cyclodextrin [HP-β-CD]” as the substance, how does the “mitigation of catalytic PS20 degradation across molecular formats (in words)” value [1] read?
Its value is “equally effective at mitigating catalytic PS20 degradation”.

What about the “effect on SVP formation (in words)” value [2] of the same substance?
The value was “significant inhibitory effects”.

What about the “HP-β-CD concentration required to completely inhibit sub-visible particle formation” value [2, 3] of the same substance?
Its value is 15%.

What about the “HP-β-CD concentration required to partially inhibit sub-visible particle formation” value [2, 3] of the same substance?
Its value is 0.5%.

How did the “effect on SVP formation (in words)” value [2] turn out when “2-hydroxypropyl-α-cyclodextrin [HP-α-CD]” was run?
Its value is “significant inhibitory effects”.
